Data taken from patent US20130102580A1, “COMPOSITIONS AND METHODS RELATED TO DEOXYCHOLIC ACID AND ITS POLYMORPHS” (Kythera Biopharmaceuticals, Inc., priority 2011, published 2013).

How the values were obtained:
Type in all cases: physicochemical
[1] = Slurry stability in EtOH/water (XRPD)
Method: To evaluate form stability under slurry conditions, Forms A and B were slurried in about 1:1.2 v/v EtOH/water at ambient temperature and at 50° C. […] Approximately 217 mg of DCA Form B was mixed with 1.5 mL of EtOH/water (1:2.37 v/v). The mixture was heated at 50° C. with stirring for 2 hours and an aliquot was filtered to isolate wet solids for XRPD analysis.

[2] = Form conversions via heating (XRPD)
Method: 20 mg of DCA Form B was weighed in an alumina crucible and heated from 30° C. to 150° C. at a ramp rate of 10° C./min and then held at 150° C. for 30 minutes. The material was cooled to ambient temperature rapidly on the instrument and analyzed by XRPD.
19 mg of DCA Form B was weighed in an alumina crucible and heated from 30° C. to 135° C. at a ramp rate of 10° C./min and then held at 135° C. for 30 minutes. The material was cooled to ambient temperature rapidly on the instrument and analyzed by XRPD.

[3] = Humidity stress (XRPD)
Method: Approximately 15 mg of Form B lot was stored at 95% relative humidity (RH) at ambient temperature. […] This surprising humidity/temperature stability of Form B was further evidenced from the following experiments. Form B samples were stored at 95% relative humidity (RH) and ambient temperature, and at 75% RH and 40° C. […] The increase of water content appeared to reach a plateau after an initial water sorption period.

[4] = Drying experiments: form conversion and stability on drying under vacuum (XRPD, HPLC); details: for Degradation by HPLC after drying: dried further for 24 hours
Method: Conversion of Form C to Form B was evaluated at 40° C. under vacuum. Two different lots of 215 mg and 134 mg of Form C were dried under vacuum at 40° C.
To evaluate the stability of DCA Form B at 50° C. and 70° C., two lots of Form C were dried at 50° C. and 70° C. for 2 hours. […] The samples were dried further for 24 hours and retained for HPLC analysis.
Another drying study was performed to evaluate the stability of Form B DCA dried at 50° C. with deionized water (DI-water) and EtOH. Samples of DCA (2.0 g) were combined with DI water and EtOH. The samples were then dried under vacuum for an extended period of time at 50° C.
The form conversion of Form C to Form B at approximately 45° C. under vacuum was analyzed by XRPD every 20 minutes. FIG. 4 graphically illustrates the conversion of the Form C to Form B upon heating.
All the experiments were cooled at 10° C./h to 20° C. and left to stir overnight. A final portion of deionized water (Water #3) was added and the mixtures were stirred for 3 hours.

[5] = about 1:1.2 v/v EtOH/water, ambient temperature

SMILES | Form conversion on slurrying (XRPD) [1, 5] | Relative thermodynamic stability of the polymorphs ([2]; conversions observed upon heating: C→B→D→A) | Form conversion on slurrying (XRPD) ([1]; EtOH/water 1:2.37 v/v, 50° C., 4 hours) | Form conversion on slurrying (XRPD) ([1]; about 1:1.2 v/v EtOH/water, 50° C., 2 hours) | Form conversion on heating (XRPD) ([2]; 30° C. to 135° C. at 10° C./min, held at 135° C. for 30 minutes) | Form conversion on heating (XRPD) ([2]; 30° C. to 150° C. at 10° C./min, held at 150° C. for 30 minutes) | Form conversion under humidity stress (XRPD) ([3]; 75% RH, 40° C., 11 days) | Form conversion under humidity stress (XRPD) ([3]; 95% RH, ambient temperature, 10 days) | Form conversion under humidity stress (XRPD) ([3]; 95% RH, ambient temperature, 11 days) | Degradation by HPLC after drying ([4]; 50° C.) | Degradation by HPLC after drying ([4]; 70° C.) | Stability to prolonged heating ([4]; heating up to 70° C.) | Stability by HPLC when dried with DI-water and EtOH ([4]; under vacuum, extended period, 50° C.) | Polymorphic form by XRPD after drying ([4]; dried at 50° C., 2 hours) | Polymorphic form by XRPD after drying ([4]; dried at 70° C., 2 hours) | Polymorphic form by XRPD after drying ([4]; under vacuum at 40° C., 2 hours, two lots) | Polymorphic form by XRPD after drying ([4]; under vacuum at 40° C., 18 hours) | Polymorphic form by XRPD after drying ([4]; under vacuum at 65° C., 60 hours, solids crystallized from EtOH/water)
C[C@H](CCC(=O)O)[C@H]1CC[C@H]2[C@@H]3CC[C@@H]4C[C@H](O)CC[C@]4(C)[C@H]3C[C@H](O)[C@]12C [Form A, deoxycholic acid] | converted to Form C | most thermodynamically stable polymorph | – | – | – | – | – | – | – | – | – | – | – | – | – | – | – | –
C[C@H](CCC(=O)O)[C@H]1CC[C@H]2[C@@H]3CC[C@@H]4C[C@H](O)CC[C@]4(C)[C@H]3C[C@H](O)[C@]12C [Form B, deoxycholic acid] | did not show any form conversion | – | remained to be Form B | afforded Form C | complete conversion to Form D | complete conversion to Form A | no form conversion | no conversion to Form C | no form conversion | no degradation | no degradation | stable to prolonged heating at up to 70 °C | stable | – | – | – | – | –
C[C@H](CCC(=O)O)[C@H]1CC[C@H]2[C@@H]3CC[C@@H]4C[C@H](O)CC[C@]4(C)[C@H]3C[C@H](O)[C@]12C [Form C, deoxycholic acid] | – | – | – | – | – | – | – | – | – | – | – | – | – | form conversion to Form B was complete | form conversion to Form B was complete | converted to Form B | complete conversion to Form B | converted to Form B
